Measured values from patent US20260347319A1, “YAP/TAZ-TEAD ONCOPROTEINS INHIBITORS” (BridGene Biosciences, Inc., priority 2022, published 2026).
Like-named read-outs stand apart in the source and are kept apart here.

How the values were obtained:
Assay type in all cases: cell-based
[1] = target: T1, TEAD4 (Homo sapiens, UniProt Q15561); test: ELISA assay in H226 cells, TEAD4; design: endogenous in cells; host or cells: H226; details: overnight
Procedure: (§1) ELISA: 750k cells were plated per well of 6-well plate for 24 hours, treated with compounds overnight, cells were then lysed in lysis Buffer with 5 mg/mL protease inhibitor (Cell Signaling #9803), centrifuged at 12000 g for 5 min. Cell lysates were normalized to 2 mg/mL for subsequent assays. A 96-well assay plate (Corning #3690) was coated with TEAD antibodies (anti-TEAD1: Cell Signaling #12292, 1:100; anti-TEAD2: LSBio #LS-C101693-100, 1:50; anti-TEAD3: Abcam #ab75192, 1:100; anti-TEAD4: Abcam #ab58310, 1:400) overnight at 4° C. Plates were washed with TBST (Thermo Fisher #28360) for 3 times, blocked in 100 μL blocking buffer (2% BSA-TBST, Sigma #A7030) for 1 hour at room temperature. 50 μL cell lysates were incubated overnight at 4° C. with shaking. The next day, plates were washed with TBST three times, incubated with 1:125 anti-YPA-HRP (Cell Signaling #15028S) for 4 hours at 4° C., followed by 3× washing in TBST, then incubated in HRP substrate (Thermo Fisher #34021) for 10 min at room temperature, reaction was stopped by TMB stop solution (Thermo Fisher #N600). Signal was read at wavelength 450 nm.

[2] = system: TEAD1; test: MCF-7 TEAD1-luciferase reporter assay (MCF7-TEAD-Luc); details: MCF7 cells, overnight; for IC50: Homo sapiens; for TEAD1-Luc MCF7: Max Inhibition: % of DMSO-treated control
Method in brief: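 MCF7 cells with a TEAD luciferase reporter were seeded at 10,000 per well, grown 24 hours at 37° C, then treated overnight with serially diluted compound. Luciferase signal was normalized as % inhibition relative to DMSO controls, and IC50 came from a four-parameter fit.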

[3] = target: T2, TEAD2 (Homo sapiens, UniProt Q15562); test: ELISA assay in H226 cells, TEAD2; design: endogenous in cells; host or cells: H226
T2 sequence (Q15562 whole entry): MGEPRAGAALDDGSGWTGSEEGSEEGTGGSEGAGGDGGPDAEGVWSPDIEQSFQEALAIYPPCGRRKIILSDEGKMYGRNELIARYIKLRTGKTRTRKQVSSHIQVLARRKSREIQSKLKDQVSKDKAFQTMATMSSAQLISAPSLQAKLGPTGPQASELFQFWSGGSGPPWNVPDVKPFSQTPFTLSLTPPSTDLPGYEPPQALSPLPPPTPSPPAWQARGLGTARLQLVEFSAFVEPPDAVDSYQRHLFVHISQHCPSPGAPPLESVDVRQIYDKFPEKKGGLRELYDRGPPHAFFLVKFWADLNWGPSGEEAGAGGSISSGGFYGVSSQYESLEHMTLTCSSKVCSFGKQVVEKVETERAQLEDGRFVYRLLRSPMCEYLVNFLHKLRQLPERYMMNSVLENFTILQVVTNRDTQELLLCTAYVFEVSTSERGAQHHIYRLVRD
Procedure: as §1

[4] = target: T3, TEAD3 (Homo sapiens, UniProt Q99594); test: ELISA assay in H226 cells, TEAD3; design: endogenous in cells; host or cells: H226
Procedure: as §1
Target sequence in this assay (Q99594 2-435 limits assumed): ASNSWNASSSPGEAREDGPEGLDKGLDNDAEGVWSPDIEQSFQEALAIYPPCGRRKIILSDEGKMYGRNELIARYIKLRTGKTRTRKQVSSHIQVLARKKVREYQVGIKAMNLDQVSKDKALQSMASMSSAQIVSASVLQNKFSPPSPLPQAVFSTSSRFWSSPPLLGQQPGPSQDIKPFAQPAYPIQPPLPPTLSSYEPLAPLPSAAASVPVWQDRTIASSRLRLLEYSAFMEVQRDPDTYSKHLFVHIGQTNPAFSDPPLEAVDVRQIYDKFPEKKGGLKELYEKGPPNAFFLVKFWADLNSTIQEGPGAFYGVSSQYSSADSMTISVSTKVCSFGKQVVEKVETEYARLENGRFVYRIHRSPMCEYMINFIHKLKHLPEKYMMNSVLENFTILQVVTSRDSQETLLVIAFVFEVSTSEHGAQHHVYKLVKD

[5] = target: T1, TEAD4; test: Palmitoylation assay, TEAD4 (HEK293T cells); design: unspecified tag; expressed in transfected cells; host or cells: HEK293T; details: 3 um compound, 24 hours
Procedure: (§2) Tagged TEAD constructs were cloned in pTriEx-6 (Novagen #71559) and transiently transfected into HEK293T cells for 24 hours. Then cells were treated with compounds for 24 hours, or treated with compounds plus 25 μM alkyne palmitic acid (for palmitoylation assay), and cell pellets were collected. Cells were lysed in lysis Buffer (100 mM Tris-HCl, 150 mM NaCl, 1% Triton, 5 mg/mL protease inhibitor cocktail), centrifuged for 10 min at 15000 g, TEAD proteins were pulled down and subjected to click-chemistry with TAMRA azide (Click Chemistry Tools #AZ109) to label compound-modified protein. Protein bands were separated by SDS-gel electrophoresis, target bands at expected molecular size were visualized using BioRad ChemiDoc Imaging system, band intensities were quantified by Image Studio.

[6] = target: T3, TEAD3; test: Palmitoylation assay, TEAD3 (HEK293T cells); design: unspecified tag; expressed in transfected cells; host or cells: HEK293T; details: 3 um compound, 24 hours
Procedure: as §2
Target sequence in this assay (Q99594 whole entry): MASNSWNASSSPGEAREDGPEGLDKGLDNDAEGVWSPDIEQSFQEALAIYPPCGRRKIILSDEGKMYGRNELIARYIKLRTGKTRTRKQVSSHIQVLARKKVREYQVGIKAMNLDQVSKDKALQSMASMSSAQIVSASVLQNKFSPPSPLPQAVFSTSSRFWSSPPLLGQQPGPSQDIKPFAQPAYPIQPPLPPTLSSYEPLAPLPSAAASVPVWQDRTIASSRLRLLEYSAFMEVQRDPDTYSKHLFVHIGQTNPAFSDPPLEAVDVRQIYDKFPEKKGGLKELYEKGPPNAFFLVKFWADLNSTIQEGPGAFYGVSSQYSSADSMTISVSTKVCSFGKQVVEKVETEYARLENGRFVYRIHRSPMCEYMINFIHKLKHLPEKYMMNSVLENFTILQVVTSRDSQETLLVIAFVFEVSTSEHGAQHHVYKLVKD

[7] = system: TEAD1; test: ELISA assay in H226 cells, TEAD1; details: Homo sapiens, NCI-H226, overnight
Procedure: as §1

[8] = system: H2052 cells; test: Cell proliferation and viability assay (CPA) in H2052 cells; details: for IC50: Homo sapiens, NCI-H2052, read-out: CPA H2052 IC50 Ave
Procedure: (§3) Compound potency and efficacy in inhibiting cell proliferation and viability was assessed in multiple cell lines. For example, NCI-H226 cells (ATCC #CRL-5826) were seeded at 2000 cells in 200 μL medium per well of a 96-well plate (Corning #3610) and incubated at 37° C. for 24 hours, then treated with serial diluted compounds for up to 6 d. Viable cells were measured by CellTiter-Glo 2.0 Cell Viability Assay (Promega #G9243), and the luminescence signal was read using an EnSight Multimode plate reader (PerkinElmer, model 9MLDHH34000000, integration time 100 ms) with Kaleido 3.0. software. For data analysis, dose-dependent curves were plotted as “inhibition” (% of DMSO-treated control wells), and were fitted by four-parametric model in GraphPad Prism to obtain IC50 values.
(§4) Alternatively, cells were plated at 2000 cells in 200 μL medium per well of a 96-well plate (Corning #3585) overnight, treated with compound for 7 days, cell density images taken by Incycte S3 live cell analysis instrument (Sartorius) every 24 hours at the same time. Images were analyzed by Incucyte's AI-driven software to get C “% confluence” for every image. Dose-dependent curves were plotted as “% inhibition” (% o of DMSO-treated control wells) and were fitted by four-parametric model in GraphPad Prism to obtain IC50 values.

[9] = system: TEAD1; test: Palmitoylation assay, TEAD1 (HEK293T cells); details: 3 um compound, 24 hours
Procedure: as §2

[10] = system: NCI-H226 cells; test: Cell proliferation and viability assay (CPA) in NCI-H226 cells; details: up to 6 d; for IC50: Homo sapiens, 144 h, read-out: CPA NCI-H226 IC50 Ave
Procedure: Compound potency and efficacy in inhibiting cell proliferation and viability was assessed in multiple cell lines. For example, NCI-H226 cells (ATCC #CRL-5826) were seeded at 2000 cells in 200 μL medium per well of a 96-well plate (Corning #3610) and incubated at 37° C. for 24 hours, then treated with serial diluted compounds for up to 6 d. Viable cells were measured by CellTiter-Glo 2.0 Cell Viability Assay (Promega #G9243), and the luminescence signal was read using an EnSight Multimode plate reader (PerkinElmer, model 9MLDHH34000000, integration time 100 ms) with Kaleido 3.0. software. For data analysis, dose-dependent curves were plotted as “inhibition” (% of DMSO-treated control wells), and were fitted by four-parametric model in GraphPad Prism to obtain IC50 values. […]

[11] = target: T2, TEAD2; test: Palmitoylation assay, TEAD2 (HEK293T cells); design: unspecified tag; expressed in transfected cells; host or cells: HEK293T; details: 3 um compound, 24 hours
Procedure: as §2

[12] = system: NCI-H226 cells; test: Cell proliferation and viability assay (CPA) in NCI-H226 cells; details: up to 6 d; for IC50: Homo sapiens, 144 h, read-out: CPA NCI-H226 IC50 Ave; remark: listed apart in the source
Procedure: as §3, §4

T1 sequence (Q15561 whole entry): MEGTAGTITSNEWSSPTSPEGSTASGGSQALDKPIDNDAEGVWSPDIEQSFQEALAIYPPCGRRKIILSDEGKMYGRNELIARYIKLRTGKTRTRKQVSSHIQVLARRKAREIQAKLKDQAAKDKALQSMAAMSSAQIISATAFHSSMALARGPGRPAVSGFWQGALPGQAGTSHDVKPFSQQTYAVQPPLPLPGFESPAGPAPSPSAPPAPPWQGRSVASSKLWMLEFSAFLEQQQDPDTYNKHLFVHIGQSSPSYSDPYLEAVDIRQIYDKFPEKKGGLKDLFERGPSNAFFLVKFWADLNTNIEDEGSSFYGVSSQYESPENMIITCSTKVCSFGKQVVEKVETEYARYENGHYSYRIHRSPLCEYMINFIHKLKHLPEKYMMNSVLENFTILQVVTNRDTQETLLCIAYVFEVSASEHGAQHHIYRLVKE

IC50 [1] | IC50 [2] | IC50 ([3]; overnight) | IC50 ([4]; overnight) | TEAD4 Inh (palmitoylation) [5] | TEAD3 Inh (palmitoylation) [6] | IC50 [7] | IC50 [8] | IC50 [10] | TEAD2 Inh (palmitoylation) [11] | IC50 [3] | IC50 [4] | IC50 [12] | SMILES | TEAD1-Luc MCF7: Max Inhibition [2] | CPA H2052 Max Inh Ave [8] | TEAD1 Inh (palmitoylation) [9] | CPA NCI-H226 Max Inh Ave [10] | CPA NCI-H226 Max Inh Ave [12]
1010 nM | ≤ 10 nM | 89 nM | 7.2 nM | 52% | 98% | 13 nM | ≤ 100 nM | ≤ 100 nM | 57% | – | – | – | C=CC(=O)N1CC[C@H](/C=C/c2ccc(C(F)(F)F)cc2)C1 (single isomer, unassigned) [Example 10] | A (A ≥ 75%) | B (75% > B ≥ 50%) | 94% | B (75% > B ≥ 50%) | –
219 nM | 10 to 100 nM | 17.7 nM | 107 nM | 52% | 90% | 66.4 nM | – | – | 54% | – | – | – | C=CC(=O)N1C[C@@H](/C=C/c2ccc(C(F)(F)F)cc2)[C@H](Nc2ncccn2)C1 (single isomer, unassigned) [Example 83] | A (A ≥ 75%) | – | 93% | – | –
– | 10 to 100 nM | – | – | 18% | 90% | – | – | – | 32% | – | – | – | C=CC(=O)N1C[C@@H](C)[C@H](/C=C/c2ccc(C(F)(F)F)cc2)C1 (stereo in doubt) [Example 39, 1-((3S*,4S*)-3-methyl-4-((E)-4-(trifluoromethyl)styryl)pyrrolidin-1-yl)prop-2-en-1-one] | A (A ≥ 75%) | – | 89% | – | –
– | ≤ 10 nM | – | – | 80% | 98% | 14 nM | ≤ 100 nM | – | 80% | 179 nM | 4 nM | 100 to 500 nM | C=CC(=O)N1CC(/C=C/c2ccc(C(F)(F)F)cc2)C1 [Example 15] | A (A ≥ 75%) | B (75% > B ≥ 50%) | 97% | – | B (75% > B ≥ 50%)
– | ≤ 10 nM | – | – | 33% | 96% | – | ≤ 100 nM | 100 to 500 nM | 70% | – | – | – | C=CC(=O)N1CC(/C=C/c2cc(C(F)(F)F)on2)C1 [Example 21, (E)-1-(3-(2-(5-(trifluoromethyl)isoxazol-3-yl)vinyl)azetidin-1-yl)prop-2-en-1-one] | A (A ≥ 75%) | B (75% > B ≥ 50%) | 96% | A (A ≥ 75%) | –
– | 10 to 100 nM | – | – | – | – | – | ≤ 100 nM | 100 to 500 nM | – | – | – | – | C=CC(=O)N1CC(C#N)(/C=C/c2cc(C(F)(F)F)on2)C1 [Example 34, 1-acryloyl-3-(2-(5-(trifluoromethyl)isoxazol-3-yl)vinyl)azetidine-3-carbonitrile] | A (A ≥ 75%) | A (A ≥ 75%) | – | A (A ≥ 75%) | –
– | 10 to 100 nM | – | – | – | – | – | ≤ 100 nM | 100 to 500 nM | – | – | – | – | C=CC(=O)N1CC(/C=C/c2ccc(C(F)(F)F)cc2)C(OC)C1 (stereo not shown) [Example 36, 1-(3-methoxy-4-(4-(trifluoromethyl)styryl)pyrrolidin-1-yl)prop-2-en-1-one] | A (A ≥ 75%) | B (75% > B ≥ 50%) | – | B (75% > B ≥ 50%) | –
15.5 nM | ≤ 10 nM | 3.4 nM | 5.6 nM | 71% | 95% | 8.7 nM | ≤ 100 nM | ≤ 100 nM | 69% | – | – | – | C=CC(=O)N1CCC(C#Cc2ccc(C(F)(F)F)cc2)C1 (stereo not shown) [Example 38, 1-(3-((4-(trifluoromethyl)phenyl)ethynyl)pyrrolidin-1-yl)prop-2-en-1-one] | A (A ≥ 75%) | B (75% > B ≥ 50%) | 93% | B (75% > B ≥ 50%) | –
– | 10 to 100 nM | – | – | – | – | – | 100 to 500 nM | 100 to 500 nM | – | – | – | – | C#Cc1cc(/C=C/C2CN(C(=O)C=C)C2)ccc1C(F)(F)F [Example 45, (E)-1-(3-(3-ethynyl-4-(trifluoromethyl)styryl)azetidin-1-yl)prop-2-en-1-one] | A (A ≥ 75%) | B (75% > B ≥ 50%) | – | B (75% > B ≥ 50%) | –
– | ≤ 10 nM | – | – | – | – | – | ≤ 100 nM | – | – | – | – | 100 to 500 nM | C=CC(=O)N1CC[C@H](C/C=C/c2ccc(C(F)(F)F)cc2)C1 [Example 85] | A (A ≥ 75%) | B (75% > B ≥ 50%) | – | – | B (75% > B ≥ 50%)
